Test results taken from US20050113450A1, “Antibacterial agents” (priority 2002, published 2005).
Values after ≈ are worked out from the molar mass of the structure shown.

What follows are compounds tested on SA 9218 (assay: MIC by standard agar dilution method). Details: Mueller Hinton agar, 10^4 to 10^5 cells per spot, incubated overnight at 35° C., lowest concentration that inhibits visible growth.
Format: cell-based
Excerpt: The antibacterial agents of this invention have useful activity against a variety of organisms. The in vitro activity of compounds of this invention can be assessed by standard testing procedures such as the determination of minimum inhibitory concentration (MIC) by agar dilution as described in “Approved Standard. Methods for Dilution Antimicrobial Susceptibility Tests for Bacteria That Grow Aerobically”, 3rd. ed., published 1993 by the National Committee for Clinical Laboratory Standards, Villanova, Pa., USA. The in vitro MICs of test compounds were determined by a standard agar dilution method. A stock drug solution of each analog was prepared in the preferred solvent, usually DMSO:H2O (1:3). Serial 2-fold dilutions of each sample are made using 1.0 ml aliquots of sterile distilled water. To each 1.0 ml aliquot of drug was added 9 ml of molten Mueller Hinton agar medium. The drug-supplemented agar was mixed, poured into 15×100 mm petri dishes, and allowed to solidify and dry prior to inoculation. Vials of each of the test organisms are maintained frozen in the vapor phase of a liquid nitrogen freezer. Test cultures are grown overnight at 35° C. on the medium appropriate for the organism. Colonies are harvested with a sterile swab, and cell suspensions are prepared in Trypticase Soy broth (TSB) to equal the turbidity of a 0.5 McFarland standard. A 1:20 dilution of each suspension was made in TSB. The plates containing the drug supplemented agar are inoculated with a 0.001 ml drop of the cell suspension using a Steers replicator, yielding approximately 10^4 to 10^5 cells per spot. The plates are incubated overnight at 35° C. Following incubation the Minimum Inhibitory Concentration (MIC μg/ml), the lowest concentration of drug that inhibits visible growth of the organism, was read and recorded.
For CC1CCCN1S(=O)(=O)c1cccc(C(=O)Nc2ccc(C#N)cc2C(=O)O)c1 (centres unmarked) [PHA-569064], the MIC was 1 mg/L (≈ 2.42 µM).
Compound CN(CCOc1ccc(C(=O)Nc2ccc(Br)cc2C(=O)O)cc1)Cc1ccccc1 has an MIC of 128 mg/L (≈ 265 µM).
In the case of CCSc1ccc(C(=O)Nc2ccc(Br)cc2C(=O)O)cc1, the MIC is reported as 0.5 mg/L (≈ 1.31 µM).
For N#Cc1cccc(NC(=O)Nc2ccc(C(=O)Nc3ccc(Br)cc3C(=O)O)cc2)c1 [PHA-713395], the MIC was > 128 mg/L.
Compound N#Cc1ccc(NC(=O)c2ccc(C#Cc3ccccc3)cc2)c(C(=O)O)c1 [PHA-568907] has an MIC of 8 mg/L (≈ 21.8 µM).
CCC#CCCOc1ccc(C(=O)Nc2ccc(Br)cc2C(=O)O)cc1 gave an MIC of 16 mg/L (≈ 38.4 µM).
In the case of N#Cc1ccc(NC(=O)c2cccc3c2C(=O)c2ccccc2-3)c(C(=O)O)c1, the MIC is reported as > 128 mg/L.
In the case of N#Cc1ccc(NC(=O)c2cccc(S(=O)(=O)N3CCc4ccccc43)c2)c(C(=O)O)c1 [PHA-571161], the MIC is reported as > 128 mg/L.
O=C(Nc1ccc(Br)cc1C(=O)O)c1ccc(S(=O)(=O)N2CCCC2)cc1 [PHA-568376] was tested, and the MIC was 16 mg/L (≈ 35.3 µM).
With Cc1ncsc1CCOc1ccc(C(=O)Nc2ccc(Br)cc2C(=O)O)cc1 the MIC was 32 mg/L (≈ 69.4 µM).
CC1CC(C)CN(S(=O)(=O)c2cccc(C(=O)Nc3ccc(C#N)cc3C(=O)O)c2)C1 (centres unmarked) [PHA-571243] showed an MIC of 4 mg/L (≈ 9.06 µM).
In the case of O=C(Nc1ccc(Br)cc1C(=O)O)c1ccc(S(=O)(=O)n2ccc3ccc(Cl)cc32)cc1 [PNU-290906], the MIC is reported as 1 mg/L (≈ 1.87 µM).
With O=C(Nc1ccc(Br)cc1C(=O)O)c1ccc(OCCN2C(=O)c3ccccc3C2=O)cc1 the MIC was 64 mg/L (≈ 126 µM).
With CN(c1ccc(Cl)cc1)S(=O)(=O)c1cccc(C(=O)Nc2ccc(Cl)cc2C(=O)O)c1 [PHA-615551] the MIC was 1 mg/L (≈ 2.09 µM).
Work on CN(C)c1ccc(CNS(=O)(=O)c2cccc(C(=O)Nc3ccc(Br)cc3C(=O)O)c2)cc1 yielded an MIC of 64 mg/L (≈ 120 µM).
For C=CCOc1cccc(C(=O)Nc2ccc(Br)cc2C(=O)O)c1, the MIC was 8 mg/L (≈ 21.3 µM).
With CON=C(c1ccccc1)c1cccc(C(=O)Nc2ccc(Br)cc2C(=O)O)c1 [PHA-522146, 5-Bromo-2-({3-[(methoxyimino)(phenyl)methyl]benzoyl}amino)benzoic acid] the MIC was 0.5 mg/L (≈ 1.1 µM).
Work on CCCCCOc1ccc(C(=O)Nc2ccc(Br)cc2C(=O)O)cc1 yielded an MIC of 16 mg/L (≈ 39.4 µM).
O=C(Nc1ccc(Br)cc1C(=O)O)c1ccc(NC(=O)c2ccco2)cc1 [PHA-708979] was tested, and the MIC was > 128 mg/L.
O=C(Nc1ccc(Br)cc1C(=O)O)c1cccc(OCC2CCOC2)c1 (centres unmarked) showed an MIC of 16 mg/L (≈ 38.1 µM).
O=C(Nc1ccc(Cl)cc1C(=O)O)c1ccc(C(=NO)c2cccnc2)cc1 was tested, and the MIC was 32 mg/L (≈ 80.8 µM).
Compound O=C(Nc1ccc(-c2ccc(C(F)(F)F)cc2)cc1C(=O)O)c1cccc(S(=O)(=O)N2CCc3cc(Cl)ccc32)c1 [PHA-563285] has an MIC of 2 mg/L (≈ 3.33 µM).
CC(=O)NCCOc1ccc(C(=O)Nc2ccc(Br)cc2C(=O)O)cc1 showed an MIC of 64 mg/L (≈ 152 µM).
CCOc1ccc(C(=O)Nc2ccc(C#N)cc2C(=O)O)cc1OCC gave an MIC of 128 mg/L (≈ 361 µM).
For COc1cc(COc2cccc(C(=O)Nc3ccc(Br)cc3C(=O)O)c2)cc(OC)c1, the MIC was 16 mg/L (≈ 32.9 µM).
In the case of COc1cc2c(cc1OC)CN(S(=O)(=O)c1cccc(C(=O)Nc3ccc(C#N)cc3C(=O)O)c1)CC2 [PHA-571194], the MIC is reported as 4 mg/L (≈ 7.67 µM).
O=C(Nc1ccc(Br)cc1C(=O)O)c1cc(S(=O)(=O)N2CCc3ccccc32)c(F)cc1Cl gave an MIC of 8 mg/L (≈ 14.4 µM).
For Cc1ccc(S(=O)(=O)NCCc2ccc(N)cc2)cc1C(=O)Nc1ccc(Br)cc1C(=O)O, the MIC was > 128 mg/L.
In the case of N#Cc1ccc(NC(=O)c2cccc(S(=O)(=O)N3CCc4ccccc4C3)c2)c(C(=O)O)c1 [PHA-571269], the MIC is reported as 16 mg/L (≈ 34.7 µM).
CC(C)(C)c1ccc(-c2ccc(C(=O)Nc3ccc(C#N)cc3C(=O)O)cc2)cc1 gave an MIC of 32 mg/L (≈ 80.3 µM).
For COc1cc(Br)c(C(=O)Nc2ccc(Br)cc2C(=O)O)cc1OC, the MIC was > 128 mg/L.
Work on Cn1cccc1-c1ccc(NC(=O)c2cccc(S(=O)(=O)N3CCc4cc(Cl)ccc43)c2)c(C(=O)O)c1 [PHA-556658] yielded an MIC of 8 mg/L (≈ 14.9 µM).
Work on O=C(Nc1ccc(Cl)cc1C(=O)O)c1cccc(C(=O)c2ccc3c(c2)OCO3)c1 yielded an MIC of 4 mg/L (≈ 9.44 µM).
With O=C(O)c1ccc([N+](=O)[O-])cc1/C=C\c1cccc(S(=O)(=O)N2CCc3cc(Cl)ccc32)c1 [PHA-568197] the MIC was 16 mg/L (≈ 33 µM).
COc1ccc(C(=O)Nc2cccc(C(=O)Nc3ccc(Br)cc3C(=O)O)c2)c(OC)c1 [PHA-708984] was tested, and the MIC was 32 mg/L (≈ 64.1 µM).
For O=C(Nc1ccc(-c2ccc(Cl)cc2)cc1C(=O)O)c1cccc(S(=O)(=O)N2CCOCC2)c1 [PHA-656820], the MIC was > 128 mg/L.
CC(C(O)c1ccccc1)N(C)S(=O)(=O)c1ccc(C(=O)Nc2ccc(C#N)cc2C(=O)O)cc1 (centres unmarked) [PHA-571183] was tested, and the “SA 9218 MIC” value was 32 mg/L.
Work on O=C(Nc1ccc(-c2ccc(F)cc2)cc1C(=O)O)c1cccc(S(=O)(=O)N2CCc3cc(Cl)ccc32)c1 [PHA-563278] yielded an MIC of 2 mg/L (≈ 3.63 µM).
